Measurements as given in paper PMC6753678, “Fueling Open Innovation for Malaria Transmission-Blocking Drugs: Hundreds of Molecules Targeting Early Parasite Mosquito Stages” (Frontiers in Microbiology, 2019).
Like-named read-outs stand apart in the source and are kept apart here.

Assays:
HepG2 cells [1] = assay: HepG2 cytotoxicity assay; conditions: for IC50: read-out: HepG2 cytotoxicity assay IC50, dose response confirmation
Method in brief: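 Cells at 2,500 per well in MEM with 10% fetal bovine serum and 1% NEAA were exposed to test compounds for 48 h at 37°C, 5% CO2. Viability was read by fluorescence, with percent inhibition calculated against 50 μM doxorubicin (positive) and DMSO (negative) controls.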

[2] = tested on: P. falciparum late stage (stages IV-V) gametocytes; set-up: method as in Almela et al 2016; conditions: ref Almela et al 2016, read-out: Pf GCT ATP IC50, cited from earlier work
[3] = tested on: P. falciparum female gametocytes; set-up: method as in Miguel-Blanco et al 2017; conditions: TCAMS screen comparison; ref Miguel-Blanco et al 2017; read-out: Pf FGAA IC50; cited from earlier work
HepG2 cells [4] = conditions: cited from earlier work
[5] = tested on: P. falciparum female gametocytes; assay: P. falciparum female gametogenesis assay (Pf FGAA); conditions: 1: YES; 0: NO
[6] = tested on: P. falciparum late stage (stages IV-V) gametocytes; assay: P. falciparum late stage gametocyte ATP depletion assay (Pf GC-ATP); conditions: 1: YES; 0: NO
[7] = tested on: 3D7-strain P. falciparum asexual parasites; assay: P. falciparum asexual growth inhibition assay (Pf GIA); format: cell-based, Plasmodium falciparum; conditions: dose response confirmation; read-out: Pf asexual growth inhibition assays IC50
Method in brief: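 0.25% parasitemia, 2% Hct, RPMI/HEPES/hypoxanthine/5% Albumax; compound dose response, 72 h, 37°C, 5% CO2, 5% O2, 90% N2. Freeze-thaw, then LDH assay, A650. % inhibition vs chloroquine (50 μM)/DMSO, mean of 3 independent runs.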

[8] = tested on: P. berghei ookinete development; conditions: for % inhibition, Replicate A / % inhibition, Replicate B: primary screen at 1 μM
[9] = HepG2 cytotoxicity unified across the three screens
[10] = value reported with the Pf FGAA screen, ref Miguel-Blanco et al 2017
[11] = value reported with the Pf GCT ATP screen, ref Almela et al 2016
[12] = HepG2 values of the three screens unified
[13] = read-out: Pb Ookinete development assay IC50, dose response confirmation
[14] = read-out: Pb ODA IC50, this manuscript

Compound	Unified cytotox (HepG2 cells [1]; [9]) [µM]	IC50 ([2]; TCAMS screen comparison) [nM]	IC50 [3] [nM]	HepG2 cytoxicity (HepG2 cells [4]; [10]) [µM]	HepG2 cytoxicity (HepG2 cells [4]; [11]) [µM]	Is compound selective in assay? Pf FGAA active? [5]	Is compound selective in assay? Pf GC-ATP active? [6]	IC50 [7] [nM]	Unified cytotox (HepG2 cells [1]; [12]) [µM]	IC50 (HepG2 cells [1]) [nM]	Is compound selective in assay? Pb ODA active? ([8]; 1: YES, 0: NO)	% inhibition, Replicate A [8] [%]	% inhibition, Replicate B [8] [%]	IC50 [8, 13] [nM]	IC50 [2] [nM]	HepG2 cytoxicity (Pf GCT ATP screen) (HepG2 cells [4]; ref Almela et al 2016) [µM]	IC50 [8, 14] [nM]	HepG2 cytoxicity (Pb ODA, this manuscript) (HepG2 cells [1]) [µM]	Is compound selective in assay? Pb ODA active? [8]
COc1cc2nc(NCCCN3CCCCC3)nc(NCc3ccccc3)c2cc1OC [TCMDC-132012]	7.89	300	900	6.84	8.94	0 (0: NO)	1 (1: YES)	–	–	–	–	–	–	–	–	–	–	–	–
CC(C)Oc1ccc2ccccc2c1CNCCCCCCNCc1c(OC(C)C)ccc2ccccc12.CS(=O)(=O)O [TCMDC-137965]	2.14	140	950	1.91	2.38	0 (0: NO)	1 (1: YES)	–	–	–	–	–	–	–	–	–	–	–	–
COc1ccc2c(c1)CC(C)(C)NC2CCCCCCCCC1NC(C)(C)Cc2cc(OC)ccc21.O=C(O)C(=O)O (stereo not shown) [TCMDC-137935]	5.47	790	1470	5.62	5.32	0 (0: NO)	0 (0: NO)	–	–	–	–	–	–	–	–	–	–	–	–
Cc1c(Cl)cccc1N=C(S)NN=Cc1ccccn1 [TCMDC-125487]	100.00	270	28	>100	>25	1 (1: YES)	1 (1: YES)	–	–	–	–	–	–	–	–	–	–	–	–
S=C(NN=Cc1ccccn1)NC1CC2C=CC1C2 (stereo not shown) [TCMDC-125752]	0.70	110	15.3	–	0.7	1 (1: YES)	0 (0: NO)	–	–	–	–	–	–	–	–	–	–	–	–
COc1ccc(CCNCCCCCCNCCc2ccc(Cl)cc2)c(Cl)c1OC.Cl [TCMDC-131272]	5.87	260	830	5.54	6.2	0 (0: NO)	1 (1: YES)	–	–	–	–	–	–	–	–	–	–	–	–
CCCOc1ccc(CCNCCCCNCCc2ccc(OCCC)c3ccccc23)c2ccccc12.CS(=O)(=O)O [TCMDC-137952]	2.38	80	610	2.16	2.6	0 (0: NO)	1 (1: YES)	–	–	–	–	–	–	–	–	–	–	–	–
C#CCOc1ccc2ccccc2c1CNCCCCCCNCc1c(OCC#C)ccc2ccccc12.CS(=O)(=O)O [TCMDC-137838]	3.05	500	1050	2.92	3.19	0 (0: NO)	0 (0: NO)	–	–	–	–	–	–	–	–	–	–	–	–
COc1cccc(NC(=O)[C@H](C(C)C)n2c(=O)[nH]c3ccccc3c2=O)c1 [TCMDC-125133]	–	–	–	–	–	–	1 (1: YES)	170	100.00	100000	1 (1: YES)	62.00	73.38	1530	540	>50	–	–	–
COCCn1c(-c2cccc(Cl)c2)nn(-c2ccc([N+](=O)[O-])cc2C#N)c1=S [TCMDC-134719]	–	–	–	–	–	–	1 (1: YES)	403	100.00	100000	1 (1: YES)	64.09	78.69	1840	2780	>25	1840	–	–
Cl.Cl.c1ccc2c(NCCCCCCNc3c4ccccc4nc4ccccc34)c3ccccc3nc2c1 [TCMDC-124285]	–	–	–	–	–	–	1 (1: YES)	532	7.56	8130	0 (0: NO)	78.92	53.92	1500	250	7	1500	8.13	–
Cn1nc(C(F)(F)F)c(-c2ccc(Br)cc2)c1NC(=O)Cc1ccccc1F [TCMDC-123792]	–	–	–	–	–	–	1 (1: YES)	206	100.00	100000	1 (1: YES)	45.62	73.81	2120	1790	>25	2120	–	–
COc1ccc(C[C@H]2NC[C@H](O)[C@H]2OC(C)=O)cc1 [TCMDC-125504]	–	–	–	–	–	–	0 (0: NO)	54	1.24	2290	–	102.72	96.40	215	170	0.19	210	2.29	0 (key: 1: YES; 0: NO)
O=c1c(Br)ccccc1Br [TCMDC-142246]	–	–	–	–	–	–	1 (1: YES)	2070	13.70	14800	1 (1: YES)	52.58	94.32	933	210	12.6	930	14.79	–
CN1c2ccc([N+](=O)[O-])cc2C(C)(C)C12C=Cc1cc(Br)cc([N+](=O)[O-])c1O2 (stereo not shown) [TCMDC-124178]	–	–	–	–	–	–	1 (1: YES)	197	29.17	29200	1 (1: YES)	65.23	65.28	1600	1090	>25	1600	29.17	–
Cc1cc(F)ccc1-c1nc(NCC(O)CNCCc2ccccc2)nc2c1ccc(=O)n2-c1c(F)cccc1F.O=C(O)C(F)(F)F (stereo not shown) [TCMDC-141784]	–	–	–	–	–	–	1 (1: YES)	451	11.63	14800	0 (0: NO)	54.07	33.72	3850	230	8.47	3850	14.79	–
C=CC(C)C1OC(=O)c2cc(OC)cc(OC)c21 (stereo not shown) [TCMDC-138676]	–	–	–	–	–	–	0 (0: NO)	259	1.01	1220	0 (0: NO)	44.05	73.82	489	400	0.8	490	1.22	–
Cc1[nH]c2ccccc2c1C(=O)C(C)Sc1n[nH]c(-c2ccccc2Br)n1 (stereo not shown) [TCMDC-125114]	–	–	–	–	–	–	1 (1: YES)	57	74.66	100000	1 (1: YES)	114.44	73.49	174	670	49.31	170	–	–
COc1cccc(CC(=O)N2CCC(n3c(C)nc4ccc(C)cc43)CC2)c1 [TCMDC-124791]	–	–	–	–	–	–	1 (1: YES)	98	100.00	100000	1 (1: YES)	79.91	77.59	1120	470	>25	1120	–	–
